Data published in article PMC10861852, “Loss of activation by GABA in vertebrate delta ionotropic glutamate receptors” (Proceedings of the National Academy of Sciences of the …, 2024).
Changes are numbered by the printed parent chain. pEC50: −log10 of the molar value.

What was measured:
[1] = molecular target: T1, AcaGluD (Acanthaster planci, UniProt A0A8B7XXR5); assay: Two-electrode voltage clamp, ligand-gated currents in oocytes; assay type: cell-based; settings: for inhibition of GABA-gated current / currents elicited when applied alone / enhancement of glutamate-gated currents: 100 μM; for inhibition of GABA-gated current: coapplied with ~EC30 GABA concentration; for enhancement of glutamate-gated currents: n = 5
T1 sequence (A0A8B7XXR5 24-958): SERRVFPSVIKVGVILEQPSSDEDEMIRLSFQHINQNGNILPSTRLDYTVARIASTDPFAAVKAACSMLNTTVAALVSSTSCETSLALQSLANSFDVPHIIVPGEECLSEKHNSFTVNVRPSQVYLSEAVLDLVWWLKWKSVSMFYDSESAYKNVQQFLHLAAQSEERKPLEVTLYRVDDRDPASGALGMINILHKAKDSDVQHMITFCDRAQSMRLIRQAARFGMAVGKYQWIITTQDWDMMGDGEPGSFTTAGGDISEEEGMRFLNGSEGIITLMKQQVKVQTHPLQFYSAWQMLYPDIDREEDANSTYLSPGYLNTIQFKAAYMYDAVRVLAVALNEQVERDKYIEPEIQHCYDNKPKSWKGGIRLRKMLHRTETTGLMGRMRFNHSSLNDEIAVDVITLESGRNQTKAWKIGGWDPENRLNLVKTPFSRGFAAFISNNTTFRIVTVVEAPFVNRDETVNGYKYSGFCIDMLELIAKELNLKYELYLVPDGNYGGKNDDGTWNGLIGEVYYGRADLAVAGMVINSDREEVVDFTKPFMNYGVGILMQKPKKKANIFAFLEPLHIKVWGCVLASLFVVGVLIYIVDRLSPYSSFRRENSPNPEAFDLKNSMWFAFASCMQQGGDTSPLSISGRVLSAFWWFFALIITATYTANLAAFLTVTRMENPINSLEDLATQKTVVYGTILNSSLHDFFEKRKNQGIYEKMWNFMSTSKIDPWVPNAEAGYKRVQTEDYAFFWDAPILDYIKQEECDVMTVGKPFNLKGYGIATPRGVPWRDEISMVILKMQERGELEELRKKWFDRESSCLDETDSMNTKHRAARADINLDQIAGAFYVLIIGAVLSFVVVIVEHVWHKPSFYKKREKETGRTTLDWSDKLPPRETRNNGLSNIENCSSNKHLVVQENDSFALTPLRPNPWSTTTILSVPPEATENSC

[2] = molecular target: T2, RatGluD2^Lc (Rattus norvegicus, UniProt Q63226, A654T); assay: Two-electrode voltage clamp, inhibition of constitutive current in oocytes; settings: each n = 4
T2 sequence (Q63226 24-1007 A654T): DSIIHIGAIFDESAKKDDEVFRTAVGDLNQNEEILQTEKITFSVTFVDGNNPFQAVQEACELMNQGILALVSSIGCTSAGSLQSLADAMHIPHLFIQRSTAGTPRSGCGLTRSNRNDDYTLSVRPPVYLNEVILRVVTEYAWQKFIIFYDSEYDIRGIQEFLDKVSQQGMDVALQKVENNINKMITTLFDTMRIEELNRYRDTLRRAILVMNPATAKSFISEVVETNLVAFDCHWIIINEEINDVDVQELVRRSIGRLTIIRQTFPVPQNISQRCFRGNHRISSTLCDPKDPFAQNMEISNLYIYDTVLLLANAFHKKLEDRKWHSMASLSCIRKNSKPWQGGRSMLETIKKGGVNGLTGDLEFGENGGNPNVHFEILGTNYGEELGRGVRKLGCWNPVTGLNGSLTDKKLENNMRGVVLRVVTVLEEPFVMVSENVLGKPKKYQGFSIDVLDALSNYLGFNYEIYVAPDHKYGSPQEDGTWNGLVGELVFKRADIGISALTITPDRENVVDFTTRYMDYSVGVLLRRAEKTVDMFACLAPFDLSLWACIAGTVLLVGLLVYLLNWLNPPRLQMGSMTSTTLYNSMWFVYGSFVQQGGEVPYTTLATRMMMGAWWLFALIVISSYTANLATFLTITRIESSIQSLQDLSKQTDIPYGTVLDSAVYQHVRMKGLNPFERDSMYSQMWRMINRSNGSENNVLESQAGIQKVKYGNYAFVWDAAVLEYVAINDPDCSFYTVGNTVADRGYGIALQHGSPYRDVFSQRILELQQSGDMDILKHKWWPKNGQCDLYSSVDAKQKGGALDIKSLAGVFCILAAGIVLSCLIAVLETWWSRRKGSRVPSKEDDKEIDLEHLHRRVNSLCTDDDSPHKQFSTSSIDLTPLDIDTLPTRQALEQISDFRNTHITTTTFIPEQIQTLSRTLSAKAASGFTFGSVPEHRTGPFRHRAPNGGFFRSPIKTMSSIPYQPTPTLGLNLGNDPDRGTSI
Excerpt: (C) Left panels, example recordings of oocytes expressing A654T lurcher-mutant RatGluD2 (RatGluD2Lc) in response to indicated AMPA iGluR antagonists and D-serine. Dashed line, zero current baseline. Right panel, % inhibition at different oocytes (dots) and resulting means (columns).

[3] = molecular target: T3, WT RatGluD2 (Rattus norvegicus, UniProt Q63226); assay: Two-electrode voltage clamp in oocytes; assay type: cell-based; settings: n = 4
T3 construct: expressed in transfected cells; host or cells: Xenopus laevis oocytes injected with mRNA
T3 sequence (Q63226 24-1007): T2 sequence (Q63226 24-1007 A654T) with T631A

[4] = molecular target: T4, RatGluD2^5x (Rattus norvegicus, UniProt Q63226, A686S/K694R/N720P/P806D/Y613F); assay: Two-electrode voltage clamp, responses to ligands in mutant-expressing oocytes; assay type: cell-based; settings: ligands 30 mM
T4 construct: expressed in transfected cells; host or cells: Xenopus laevis oocytes injected with mRNA
T4 sequence (Q63226 24-1007 Y613F/A686S/K694R/N720P/P806D): T2 sequence (Q63226 24-1007 A654T) with Y590F, T631A, A663S, K671R, N697P, P783D
Excerpt: (§1) If the 10 mutations discussed above drove the loss of function in vertebrate delta iGluRs, one might expect that the latter could be “reawakened” via active invertebrate delta iGluR-like mutations here. We therefore engineered mutant RatGluD2 iGluRs to contain at these positions the equivalent residues from starfish delta iGluRs. These mutants were RatGluD2^5x, containing Y613F, A686S, K694R, N720P, and P806D substitutions (pink in Fig. 6A), and RatGluD2^9x, additionally containing N763K, D753Q, Q786M, and R787V (cyan in Fig. 6A).
(§2) Fig. 6. AcaGluD-like mutations alter RatGluD2 receptor function. (A) D-serine bound RatGluD2 from X-ray structure PDB:2v3u ([13]). Selected amino acid residues are indicated, colored, shown as sticks, and labeled 5×, 9×, 10×, and/or Lc according to the multiple mutants they were incorporated into. 10× mutant included 10×, 9×, and 5× positions. 9× included 9× and 5×. 5× included only 5×. […] (B–E) Example current responses to different neurotransmitter ligands (30 mM) and to pore blocker pentamidine (Pent, 100 μM) in oocytes expressing indicated RatGluD2 mutants. The dashed line indicates zero current baseline. (F) Individual (dots) and mean (columns) responses to ligands in oocytes expressing indicated RatGluD2 mutants (n = 4 to 5).

[5] = molecular target: T5, RatGluD2^9x (Rattus norvegicus, UniProt Q63226, A686S/D753Q/K694R/N720P/N763K/P806D/Q786M/R787V/Y613F); assay: as above; assay type: cell-based; settings: ligands 30 mM
T5 construct: expressed in transfected cells; host or cells: Xenopus laevis oocytes injected with mRNA
T5 sequence (Q63226 24-1007 Y613F/A686S/K694R/N720P/D753Q/N763K/Q786M/R787V/P806D): T2 sequence (Q63226 24-1007 A654T) with Y590F, T631A, A663S, K671R, N697P, D730Q, N740K, Q763M, R764V, P783D
Excerpt: as §1, §2

| Structure (SMILES) | inhibition of GABA-gated current [1] | inhibition of constitutive currents [2] | effect on oocytes expressing WT RatGluD2 [3] | currents elicited when applied alone [1] | enhancement of glutamate-gated currents [1] | further results |
| --- | --- | --- | --- | --- | --- | --- |
| O=C(O)c1cc(=O)c2c(Cl)cc(Cl)cc2[nH]1 [5,7-dichlorokynurenic acid] | 11 ± 5% |  |  |  |  |  |
| C[C@@H](NCc1cc(Br)cc2[nH]c(=O)c(=O)[nH]c12)P(=O)(O)O [CGP-78608] | 9 ± 3% |  |  |  |  |  |
| N#Cc1cc2[nH]c(=O)c(=O)[nH]c2cc1[N+](=O)[O-] [CNQX] | 81 ± 4% | 10 ± 0.2% | no effect | elicited no currents | no effect |  |
| O=[N+]([O-])c1cc2nc(O)c(O)nc2cc1[N+](=O)[O-] [DNQX] | 53 ± 3% | 11 ± 0.2% | no effect | elicited no currents | 34 ± 3% |  |
| N[C@@H](CCC(=O)O)C(=O)O [glutamate] |  |  |  |  |  | current response to ligand [4]: no responses; current response to ligand [5]: no responses; pEC50 ([1]; 0 Ca2+, n = 4): ~1.52; maximum ligand-gated current amplitude ([1]; in the presence of 1.8 mM Ca2+): 5.8 ± 0.6 µA; maximum ligand-gated current amplitude ([1]; nominally Ca2+-free solutions): 0.28 ± 0.02 µA |
